Results published in US20090280160A1, “PHENYLEPHRINE PHARMACEUTICAL FORMULATIONS AND COMPOSITIONS FOR TRANSMUCOSAL ABSORPTION” (Schering-Plough Healthcare Products, Inc., priority 2007, published 2009).
Entries after “also recorded” stand apart in the source; their conditions may differ.

Key:
α1b adrenoreceptor [1] = molecular target: T1, α1b adrenoreceptor (Homo sapiens, UniProt P35368); test: Cellular calcium flux (FLIPR), α1b expressing CHO cells; type: cell-based; details: for increase in intracellular calcium, α1b calcium assay (in words): α1b expressing CHO cells
T1 construct: expressed in transfected cells
T1 sequence (P35368 1-520): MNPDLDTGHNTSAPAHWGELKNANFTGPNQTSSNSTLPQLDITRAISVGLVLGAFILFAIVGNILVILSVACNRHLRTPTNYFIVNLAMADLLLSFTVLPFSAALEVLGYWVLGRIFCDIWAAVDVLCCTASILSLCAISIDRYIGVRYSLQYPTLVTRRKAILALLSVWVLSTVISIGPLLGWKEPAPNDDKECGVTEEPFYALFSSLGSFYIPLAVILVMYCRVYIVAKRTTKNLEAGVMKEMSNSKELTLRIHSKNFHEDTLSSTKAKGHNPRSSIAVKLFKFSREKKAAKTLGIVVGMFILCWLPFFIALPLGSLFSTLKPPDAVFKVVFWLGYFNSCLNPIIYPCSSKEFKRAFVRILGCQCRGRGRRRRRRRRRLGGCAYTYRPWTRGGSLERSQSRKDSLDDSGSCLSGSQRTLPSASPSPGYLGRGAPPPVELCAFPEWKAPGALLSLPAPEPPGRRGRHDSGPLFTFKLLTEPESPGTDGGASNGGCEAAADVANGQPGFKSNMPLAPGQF
Protocol: (§1) The affinity and activity of phenylephrine metabolites were evaluated in human recombinant α1 and α2 adrenoreceptor binding and activity assays. […] Affinity of the metabolites was determined by receptor binding assays. Functional activity of the metabolites was assessed using an [^35S]-GTPγS binding exchange assay for the α2 receptor subtypes and a cell-based calcium flux response for the α1 receptor subtypes.
Intracellular calcium levels were measured using a fluorometric imaging plate reader (FLIPR). Cells expressing α1 adrenoreceptors were cultured overnight at 15,000 cells/well in 96 well black-wall clear bottom plates (Packard). Adherent cells were loaded for 1 hour at 37° C. using the FLIPR Calcium Plus Assay Kit (Molecular Probes, Eugene, Oreg.), which included 2.5 mM probenecid (Sigma). Compounds (at 10 mM in 100% DMSO) were diluted in diluting buffer (HBSS, 20 mM HEPES, 2.5 mM probenecid, 0.5% BSA, pH 7.4). A titration of norepinephrine was included in every experiment and norepinephrine (at 1 μM) was also used as a plate standard on each assay plate. Cells were maintained at 37° C. throughout all calcium measurements. Fluorescence data was collected at 1 second interval for 60 seconds, followed by collection at 2 second intervals for 30 seconds. Background fluorescence was quantitated in wells containing cells with no additions and was subtracted from all experimental samples. All conditions were done in quadruplicate. Non-linear regression analysis using GraphPad Prism was used to calculate EC50 values.
(§2) Each metabolite was evaluated in each assay in at least 2 independent experiments and a representative assay of each metabolite/assay combination is shown.

α1b adrenoreceptor [2] = molecular target: T1, α1b adrenoreceptor; test: Competition binding, [3H]-prazosin, α1b CHO cell membranes
Protocol: as §1
(§3) Competition Binding Assays
(§4) Competition binding assays for the α2 adrenoreceptors were performed using 20 μg membrane protein per well in binding buffer (75 mM Tris-HCl pH 7.4, 12.5 mM MgCl2, […] EDTA, 0.2% bovine serum albumin). […] Binding was terminated by rapid filtration through GF/C unifilter plates, presoaked with 0.3% polyethylenimine, with five washes with 0.5 ml cold 50 mM Tris-HCl ph 7.4, using a Packard Filtermate Harvester. After drying, bound radioactivity was determined by liquid scintillation counting (Packard TopCount) with Microscint 20, 50 μl/well. Binding data were analyzed using GraphPad Prism.
as §2

α2a adrenoreceptor = molecular target: T2, α2a adrenoreceptor (Homo sapiens, UniProt P08913); test: Competition binding, [3H]-UK14304, α2a CHO cell membranes; details: for inhibition of [3H]-UK14304 binding, α2a (in words): CHO cell membranes
T2 construct: expressed in transfected cells; host or cells: CHO (Chinese hamster ovary) cells, membranes
T2 sequence (P08913 1-465): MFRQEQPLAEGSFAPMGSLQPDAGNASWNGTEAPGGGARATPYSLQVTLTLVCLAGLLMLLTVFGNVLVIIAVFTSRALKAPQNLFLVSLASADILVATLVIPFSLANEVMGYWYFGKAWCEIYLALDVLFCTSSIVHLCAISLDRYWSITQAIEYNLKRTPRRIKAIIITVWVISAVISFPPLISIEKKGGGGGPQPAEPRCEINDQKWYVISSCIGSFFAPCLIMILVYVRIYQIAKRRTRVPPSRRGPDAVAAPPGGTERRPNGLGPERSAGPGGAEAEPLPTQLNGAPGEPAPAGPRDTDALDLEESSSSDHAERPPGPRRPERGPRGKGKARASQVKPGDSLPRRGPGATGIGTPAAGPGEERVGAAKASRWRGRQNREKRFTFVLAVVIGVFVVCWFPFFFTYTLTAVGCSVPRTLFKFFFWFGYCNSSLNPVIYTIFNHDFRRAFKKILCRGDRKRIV
Protocol: as §1, §3, §4, §2

α2b adrenoreceptor = molecular target: T3, α2b adrenoreceptor (Homo sapiens, UniProt P18089); test: Competition binding, [3H]-UK14304, α2b CHO cell membranes; details: for inhibition of [3H]-UK14304 binding, α2b (in words): CHO cell membranes
T3 construct: expressed in transfected cells; host or cells: CHO (Chinese hamster ovary) cells, membranes
T3 sequence (P18089 1-450): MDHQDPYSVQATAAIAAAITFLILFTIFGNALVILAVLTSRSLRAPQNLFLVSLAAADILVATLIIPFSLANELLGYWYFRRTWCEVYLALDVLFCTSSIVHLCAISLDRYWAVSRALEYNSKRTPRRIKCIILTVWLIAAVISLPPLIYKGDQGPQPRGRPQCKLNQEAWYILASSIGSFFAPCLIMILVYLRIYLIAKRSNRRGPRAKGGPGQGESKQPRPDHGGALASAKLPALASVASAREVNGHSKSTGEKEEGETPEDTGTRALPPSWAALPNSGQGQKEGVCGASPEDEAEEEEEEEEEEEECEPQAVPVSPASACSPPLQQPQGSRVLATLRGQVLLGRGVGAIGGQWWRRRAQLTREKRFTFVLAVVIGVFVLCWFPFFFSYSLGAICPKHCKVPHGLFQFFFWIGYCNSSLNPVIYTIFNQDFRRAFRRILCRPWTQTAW
Protocol: as §1, §3, §4, §2

[3] = oral, approximately 24 mg of PE, healthy volunteers; cited from earlier work
[4] = listed as PE glucuronide batch 4
[5] = at 100 μM (highest concentration evaluated)

| SMILES | fold less potent than PE in inducing a calcium increase, α1b cells (α1b adrenoreceptor [1]; batch b4, approximately 0.28% PE) | increase in intracellular calcium, α1b calcium assay (in words) (α1b adrenoreceptor [1]) | increase in intracellular calcium, α1b calcium assay (in words) (α1b adrenoreceptor [1]; [4]) | inhibition of 3H-prazosin binding, α1b (in words) (α1b adrenoreceptor [2]; CHO cell membranes) | inhibition of [3H]-UK14304 binding, α2a (in words) (α2a adrenoreceptor) | inhibition of [3H]-UK14304 binding, α2a (in words) (α2a adrenoreceptor; listed as PE glucuronide b4) | inhibition of [3H]-UK14304 binding, α2a (in words) (α2a adrenoreceptor; [4]) | inhibition of [3H]-UK14304 binding, α2b (in words) (α2b adrenoreceptor) | inhibition of [3H]-UK14304 binding, α2b (in words) (α2b adrenoreceptor; listed as PE glucuronide b4) | inhibition of [3H]-UK14304 binding, α2b (in words) (α2b adrenoreceptor; [4]) | metabolite excreted in the urine [3] | agonist activity, α1b calcium assay (in words) (α1b adrenoreceptor [1]; highest concentration evaluated (10 μM)) | EC50 (α1b adrenoreceptor [1]; α1b-expressing CHO cells, read-out: EC50, a1b Calcium (class symbol)) | Ki (α1b adrenoreceptor [2]; [3H]-prazosin, read-out: Ki, a1b Binding (class symbol)) | binding / affinity, α1b receptor (in words) (α1b adrenoreceptor [2]; concentrations up to 100 μM) | Ki (α2a adrenoreceptor; [3H]-UK14304, read-out: Ki, a2a Binding (class symbol)) | binding / affinity, α2a receptor (in words) (α2a adrenoreceptor; [5]) | Ki (α2b adrenoreceptor; [3H]-UK14304, read-out: Ki, a2b Binding (class symbol)) | binding / affinity, α2b receptor (in words) (α2b adrenoreceptor; [5]) |
| --- | --- | --- | --- | --- | --- | --- | --- | --- | --- | --- | --- | --- | --- | --- | --- | --- | --- | --- | --- |
| CNC[C@H](O)c1cccc(O[C@@H]2O[C@H](C(=O)O)[C@@H](O)[C@H](O)[C@H]2O)c1 [PE glucuronide, (R)-PE glucuronide] | 300-450 fold | consistent with level of contaminating phenylephrine; also recorded: pharmacologically inactive | minimal activity | No appreciable binding; also recorded: no binding affinity; also recorded: pharmacologically inactive | weakly inhibits binding; also recorded: pharmacologically inactive | A small amount of binding | minimal activity | weakly inhibits binding; also recorded: pharmacologically inactive | A small amount of binding | minimal activity | 12 % of dose | – | – | – | – | – | – | – | – |
| O=C(O)C(O)c1cccc(O)c1 (centres unmarked) [3-hydroxymandelic acid] | – | not active | – | – | no significant binding | – | – | no significant binding | – | – | 30 % of dose | no activity | > 10 µM | > 100 µM | No appreciable binding; also recorded: no affinity | > 100 µM | no affinity | > 100 µM | no affinity |
